Experimental data published in ChEMBL document CHEMBL3507680, “University of Dundee, Gates Library screen for HepG2 cell viability”.

Experiment: Human HepG2 cell viability assay in 384 well format
Assay type: toxicity, cell-based
Set-up: dose 125 nL, time 70.5 hour; concentration not given beside the values
Details: HepG2 cells, read-out: Inhibition

| Structure (SMILES) | cytotoxicity at 70.5 h |
| --- | --- |
| O=C(NCC1(CO)CC1)NC(c1nccs1)C1CC1 (centres undefined) | -3.86% |
| Cc1noc(CN(Cc2cccc(C#N)c2)Cc2cccs2)n1 | 0.497% |
| N#Cc1cccc(OCCN2CCCC2C(=O)N2CCSCC2)c1 (centres undefined) | 3.62% |
| Cc1occc1CNC(=O)C1CCN(C(=O)OC(C)(C)C)C1 (centres undefined) | -0.732% |
| CC(C(=O)Nc1ccc(Cl)cn1)N1CCc2nn(C)c(=O)cc2C1 (centres undefined) | -2.78% |
| Cc1cnc(C(NC(=O)NCC2(CO)CC2)C2CC2)s1 (centres undefined) | 2.13% |
| O=C(c1cccc(F)c1Cl)N(CCO)CC1CC1 | -1.98% |
| NC(=O)c1ccc(N2CCCCC2)c(NC(=O)c2ccc(F)cc2Cl)c1 | 3.11% |
| CCNC(=O)C1CCN(Cn2nc(-c3ccccc3)oc2=O)CC1 | -1.22% |
| O=c1oc(-c2ccccc2)nn1CN1CCC(N2CCCCC2)CC1 | 24.3% |
| O=C(CCCn1cncn1)NC1(c2ccc(Cl)cc2)CCC1 | -1.83% |
| Cc1ccc(CN(C)C(=O)CN2CCCC2Cn2cncn2)cc1 (centres undefined) | -3.7% |
| CN(Cc1ccccc1)C(=O)CN1CCCCC1Cn1cncn1 (centres undefined) | 1.47% |
| O=C(NC1CCC(C(=O)N2CCSCC2)CC1)N1CCC1 (centres undefined) | -6.98% |
| CN(Cc1cnn(C)c1)C(=O)CN1CCCCC1Cn1cncn1 (centres undefined) | -7.41% |
| CC(C)c1nc(CNC2CCCN(c3cccnn3)C2)no1 (centres undefined) | 21% |
| NC(=O)c1ccc(N2CCCCC2)c(NC(=O)c2cc(F)ccc2F)c1 | -4.2% |
| CCNC(=O)Cc1c(C)nc2c(c1C)c(=O)[nH]n2C | -5.26% |
| c1cnnc(N2CCCC(NCc3nc(-c4ccsc4)no3)C2)c1 (centres undefined) | -0.51% |
| COC(=O)[C@H](C)NC(=O)Cc1c(C)nc2c(c1C)c(=O)[nH]n2C | -2.82% |
| c1ccc(-c2noc(CNC3CCCN(c4cccnn4)C3)n2)nc1 (centres undefined) | 0.881% |
| Cc1cccc(C2(NC(=O)CCCn3cncn3)CCCC2)c1 | -5.53% |
| O=C(CCCn1cncn1)NC1(c2cccc(Br)c2)CC1 | 4.56% |
| CC(C)(C)OC(=O)N1CCCc2ccc(NCc3ccon3)cc21 | -4.98% |

| Structure (SMILES) | cytotoxicity at 70.5 h |
| --- | --- |
| CC(C)c1ocnc1C(=O)NC1(c2cccc(F)c2)CCOCC1 | -3.27% |
| O=C(C1CC1)N1CCC(Oc2ccccc2Cl)CC1 | 20.6% |
| CC(C)C1CN(C(=O)c2cccs2)CCS1 (centres undefined) | -4.53% |
| CCN(Cc1ccccc1)C(=O)CN1CCCCC1Cn1cncn1 (centres undefined) | -6.76% |
| Cc1cc(NC(=O)C(c2cccc(F)c2)N2CCOCC2)sn1 (centres undefined) | 8.13% |
| O=C(NCCN1CCOCC1)N(CCCO)C1CCCc2ccccc21 (centres undefined) | -2.32% |
| CC(C)C(=O)N1CCN(Cc2csc(-c3ccccn3)n2)CC1 | -7.7% |
| COc1cc(NC(=O)c2ccc(C)c(F)c2)c(C(=O)N(C)C)cc1OC | -12.5% |
| Cc1ccc(S(=O)(=O)Nc2ccc(-n3cccc3C(=O)O)c(C)c2)cc1 | -6.38% |
| CCC(CC)C(=O)NCc1cn2cc(Br)ccc2n1 | -8.77% |
| COc1c(Br)cccc1CCNC(=O)c1ncoc1C | 9.9% |
| CN(Cc1ccccn1)C(=O)c1ccc2c(c1O)OC(C)(C)C2 | 11.6% |
| Cc1oc(-c2ccc(Cl)cc2)nc1C(=O)NC1=NCCS1 | 11.2% |
| CC(c1ccccc1)N(C)C(=O)CN1CCCc2cc(F)cc(F)c21 (centres undefined) | 12.8% |
| O=C(CNc1cc(Br)ccc1Br)NC1CCS(=O)(=O)C1 (centres undefined) | -14.1% |
| Cc1oc(-c2ccccc2)nc1CC(=O)NC1=NCCS1 | -11% |
| NC(=O)C1CCN(CC(=O)N2CCCC2c2ccsc2)CC1 (centres undefined) | -4.16% |
| Cc1nnc2n1CCN(C(=O)CN1C(=O)C(C)Oc3ccccc31)C2 (centres undefined) | -7.32% |
| Clc1cncc(NCc2cccc(COC3CCOCC3)c2)n1 | -6.08% |
| CS(=O)(=O)CCCOc1cccc(-n2cccn2)c1 | 12.8% |
| CCN1CCN(S(=O)(=O)c2c[nH]c(C(C)C)n2)c2ccccc21 | -5.4% |
| CC(C)Cc1noc(COc2ccc(N(C)C(N)=O)cc2)n1 | -6.27% |
| Clc1cnccc1NCc1cccc(COC2CCOCC2)c1 | -0.494% |
| O=C(C1CCCOC1)N1CCc2ccc(F)cc21 (centres undefined) | 1.26% |

| Structure (SMILES) | cytotoxicity at 70.5 h |
| --- | --- |
| Cc1noc(C)c1CNc1ccc2nc(C3CC3)sc2c1 | -1.96% |
| O=C1CC2(CCSC2)C(=O)N1Cc1ncc(-c2ccccc2)o1 (centres undefined) | -2.34% |
| O=C(CC(F)(F)F)NC(c1ccc(Cl)cc1)c1ncon1 (centres undefined) | -3.08% |
| CN(Cc1nnc(C2CC2)o1)C(c1ccc(F)cc1)c1cccnc1 (centres undefined) | 0.0755% |
| CC(C)CC(C(=O)N(C)Cc1ncnn1C)N1CCCCC1=O (centres undefined) | -2.2% |
| CC(CCNC(=O)N1CCC1)N(C)C(=O)OC(C)(C)C (centres undefined) | -0.749% |
| O=C(c1ncoc1-c1ccco1)N(Cc1ccco1)CC1CCCO1 (centres undefined) | -3.69% |
| Cc1ccc(CNCc2c[nH]nc2C(C)(C)C)c(OC2CCOC2)c1 (centres undefined) | -5.05% |
| CC(C)NC(=O)CN(C)CC(=O)/N=c1/cc[nH]n1C(C)C1CC1 (centres undefined) | 34.2% |
| COc1c(C)cnc(CNC(=O)CCOCC(C)C)c1C | -4.31% |
| CC(C)Cn1ncc2cc(C(=O)N(C)CCc3ccccc3)cnc21 | -8.96% |
| Cc1occc1C(=O)N1CCC(C(O)c2ccc(F)cc2)CC1 (centres undefined) | -4.29% |
| CC(C1CC1)n1nccc1NC(=O)CN(C)C(=O)OC(C)(C)C (centres undefined) | 27.9% |
| Cc1nc(CNc2ncc(Br)cn2)n[nH]1 | -5.62% |
| CC(C)C(C)N(C(=O)c1cc2c([nH]c1=O)CCCC2=O)C1CC1 (centres undefined) | -7.9% |
| CS(=O)(=O)N1CCOC2(CCCC2)C1 | -5.25% |
| O=c1[nH]nc(CNc2ncc(Br)cn2)[nH]1 | -2.47% |
| OCCCNC1CCc2cc3c(cc21)OCCO3 (centres undefined) | -4.1% |
| CC(=O)N(C)CCc1nc(-c2cc(C(N)=O)co2)cs1 | -6.25% |
| CC(C)c1cccc(-n2cc(O)c(C(N)=O)n2)c1 | 25.8% |
| CC(C)CCN(C)C(=O)c1cnc2c(cnn2CC(C)C)c1 | 1.58% |
| CC1CCCN(S(=O)(=O)N2CCOC3(CCCC3)C2)C1 (centres undefined) | 10.1% |
| Cc1cc(CNC(=O)c2cc(C(C)C)n(C)n2)ccc1S(C)(=O)=O | -8.39% |
| COCCN(CCN(C)C)C(=O)NC1CCc2ccccc2C1 (centres undefined) | -5.75% |

| Structure (SMILES) | cytotoxicity at 70.5 h |
| --- | --- |
| O=S(=O)(c1cccnc1)N1CCN(CC(O)c2ccccc2)CC1 (centres undefined) | -3.21% |
| NC(=O)NC(CC(=O)NCCc1cccc(F)c1)c1cccs1 (centres undefined) | 17% |
| Cc1cc(NC(=O)CN(CC(C)O)c2ccccc2)on1 (centres undefined) | -3.15% |
| CC(=O)NCCSCCOc1cccc(Br)c1 | 17.6% |
| O=C(CCc1ccccn1)NCC(O)c1ccc(Cl)cc1Cl (centres undefined) | -1.56% |
| O=C(CCCc1ccccn1)NCC(O)c1ccccc1Cl (centres undefined) | 3.77% |
| CSc1nc(C2CC2)nc(C)c1C(=O)NCc1ncc(C)o1 | -2.47% |
| Cc1nc(CNC(=O)NC2CCN(c3ncccc3Cl)C2)no1 (centres undefined) | -3.51% |
| O=C(NCc1cscn1)NC1CCN(c2ncccc2Cl)C1 (centres undefined) | -2.49% |
| CC(C)c1ccc(S(=O)(=O)NC2(CC(N)=O)CCC2)cc1 | 2.8% |
| CC(C)n1ncc2c1NC(=O)C(C#N)C21CCCCC1 (centres undefined) | -9.51% |
| CC(C)C(NC(=O)c1ccc(Cl)cc1Cl)C(=O)Nc1ccn(C)n1 (centres undefined) | 1.6% |
| COC(=O)CN(Cc1ccccc1C)C(=O)COCC1CC1 | -2.06% |
| CN(C(=O)c1cccnc1OCC(F)F)c1ccc2c(c1)CCO2 | -9.98% |
| CCN(C)CC1CCN(C(=O)Nc2ccc(C)cc2)C1 (centres undefined) | -3.05% |
| Cc1ncc(CN(C)CC(O)c2cccc(C(F)(F)F)c2)s1 (centres undefined) | 17.1% |
| CCC(CC)c1nnc(NC(=O)N2CCC(C(N)=O)CC2)s1 | -0.155% |
| Cc1ccc2nc(NCCN3CCOCC3)n(C)c(=O)c2c1 | 0.444% |
| NC(=O)C1CCCN1Cc1ccccc1NC(=O)Cc1cccc(F)c1 (centres undefined) | -0.431% |
| CCOc1ccnc(N2CCN(C(=O)CCc3ccsc3)CC2)n1 | -7.66% |
| CC(C)CNC(=O)CCN1C(=O)CCc2cc(F)ccc21 | -4.13% |
| Cn1ncnc1NS(=O)(=O)c1ccc(F)cc1Cl | -1.04% |
| CCOc1ccnc(N2CCN(C(=O)CCc3ccncc3)CC2)n1 | 0.226% |
| CC(C(=O)N1CCc2sccc2C1)N1CCC(S(N)(=O)=O)CC1 (centres undefined) | -4.51% |

| Structure (SMILES) | cytotoxicity at 70.5 h |
| --- | --- |
| Cc1cccc(CNc2nnc(C(C)C)o2)c1 | 0.308% |
| Cc1ncc(CN(C)CC(O)c2ccc(Br)cc2)s1 (centres undefined) | -12% |
| COc1ccnc(N2CCCN(C(=O)CCc3cnn(C)c3)CC2)n1 | -10.3% |
| CCOCc1nnc(NCc2cccnc2)o1 | -7.36% |
| Cn1nccc1NCc1cc2cc(F)ccc2o1 | 23.2% |
| CSC1(CNC(=O)c2cccc(-n3cccn3)c2)CCOCC1 | 1.71% |
| Cc1cc(CN(C)C(=O)CN2CCCC2=O)no1 | -15.2% |
| O=C(CCn1c(=O)oc2ccccc21)NCC(O)c1ccccc1 (centres undefined) | -3.91% |
| O=C(CCCNC(=O)NCC1CCCO1)Nc1ccc(Cl)cc1 (centres undefined) | -8.55% |
| CN(CCCc1cc(-c2ccc(F)cc2)n(C)n1)CC(=O)NC(N)=O | -8.03% |
| Cc1ncsc1CNC(=O)NCC1(c2ccc3c(c2)OCO3)CC1 | 19% |
| O=C(Nc1ccc(F)cc1)C1CSCN1 (centres undefined) | -10.2% |
| N#CCCN(CCN1CCOCC1)Cc1ccc(F)c(Br)c1 | -3.12% |
| O=C(NCCn1cccc1)c1c(O)cc(F)cc1F | -6.2% |
| CC(C)c1nncn1CCNC(=O)c1c(O)cc(F)cc1F | -4.67% |
| CC(C)(C)OC(=O)N1CCN(S(C)(=O)=O)C2(CCCCC2)C1 | -1.8% |
| O=C(NCC1(O)CCSC1)c1cccc(-n2cccn2)c1 (centres undefined) | -10.4% |
| CC(C)(NS(C)(=O)=O)c1nc(-c2ccncc2)no1 | 18.6% |
| COc1ccc(CN(CCC#N)CCN2CCOCC2)cc1OC | -10.2% |
| OC(CNC1CCSCC1)c1cccc(OCc2ccccc2)c1 (centres undefined) | 23.4% |
| O=C(OCc1cc(=O)n2cc(Br)ccc2n1)c1ccc2c(c1)OCO2 | -5.88% |
| Cc1ccc2cccc(S(=O)(=O)N(C)CC3CCN(C)CC3)c2n1 | -7.7% |
| Cc1n[nH]c2ncc(CNC3CCN(Cc4ccccn4)CC3)cc12 | -6.34% |
